Reference: a compilation of properties of binary mixtures (doi:10.1021/acs.jpcb.7b06452)

Assay: xn = mol fraction of the nth substance listed
Conditions: 101 kPa

CC(=O)[O-].CCCC[P+](CCCC)(CCCC)CCCC + CC(=O)[O-].CCCC[n+]1ccn(C)c1
viscosity [mPa·s]
Conditions	313.15 K	323.15 K	333.15 K	343.15 K	353.15 K
x2 = 0	–	–	67.1	43.1	29.1
x2 = 0.5018	323	–	96.7	59.2	38.7
x2 = 0.751	–	133	78	49.6	33.2

CC(=O)[O-].CCCC[n+]1ccn(C)c1 + CCCC[n+]1ccn(C)c1.O=S(=O)([N-]S(=O)(=O)C(F)(F)F)C(F)(F)F
viscosity [mPa·s]
Conditions	293.15 K	298.15 K	303.15 K	313.15 K	323.15 K	333.15 K	343.15 K	353.15 K
x1 = 0.2512	101.2	78	61.3	–	27.9	20.19	15.46	–
x1 = 0.5001	178	132	–	60.7	39.5	27.4	19.92	15.15
x1 = 0.7497	316	223	–	91.3	–	36.9	25.7	18.76

CCCC[n+]1ccn(C)c1.O=S(=O)([N-]S(=O)(=O)C(F)(F)F)C(F)(F)F + CC(=O)[O-].CCCC[n+]1ccn(C)c1
x2 = 0
Conditions	viscosity [mPa·s]
293.15 K	62.9
303.15 K	40.8
313.15 K	28.1
323.15 K	20.29
333.15 K	15.34
343.15 K	11.98
